Patent US20040044304A1, “Local drug delivery using photosensitizer-mediated and electromagnetic radiation enhanced vascular permeability” (priority 2002, published 2004)

System: blood vessels within the dorsal window chamber
Type: in vivo, mice of strain C3H
Source text: Male mice of strain C3H (sourced from The Jackson Laboratory, 600 Main Street, Bar Harbor, Me. 04609 USA) weighing between 28-30 gram were surgically implanted with titanium back-pack window chambers in a similar manner to that described for Syrian Golden hamsters as described above. Prior to the surgical procedure, the dorsal surface of the mouse was shaved with electric clippers (Sunbeam Oster 2-Speed, 150 Cadillac Lane, McMinnville, Tenn., 37110) and then the shaved skin covered in a depilatory cream (Nair, Carter Products, New York, N.Y., 10105) for 10 minutes to remove the remaining hair. Then a dorsal skin fold consisting of two layers of skin and muscle tissue was sandwiched between two opposing titanium frames (Campus Research Machine Shop, University of California, San Diego 9500 Gilman Drive, La Jolla, Calif.) with a 14 mm circular opening in each. Layers of skin and muscle fascia were separated from the sub-cutaneous tissue, and removed until a thin monolayer of muscle and one layer of intact skin remained. A coverglass (Type Circle 1, Part #12-545-80 sourced from Fisher Scientific, 2761 Walnut Avenue, Tustin, Calif., 92780) held by an expansion ring in the circular window of one titanium frame was then placed on the exposed tissue to allow direct microscopic visualization of the vasculature. The window in the second opposing titanium frame was left open exposing the intact skin.
Microvascular observations using an intra-vital microscope were not undertaken until at least 2 days post-chamber implantation to mitigate against post-surgical trauma, and to confirm that blood vessels within the chamber were functioning and intact and patent. A chamber was considered suitable for subsequent studies if microscopic examination of the preparation met the following criteria (as applied in Friesenecker et al., 1994):
The intra-vital microscopic studies were undertaken on un-sedated animals held in a Plexiglass tube (manufactured by Miravant Medical Technologies, Inc., 336 Bollay Drive, Santa Barbara, 93117) from which the window chamber sandwich protruded horizontally, allowing visualization of the chamber on the microscope stage. The Plexiglass tube acted to restrain the animals without impeding respiration. The intra-vital microscopy was performed using a Leitz Dialux 22 (West LA Microscope Co., Butler Avenue, Santa Monica, 90025) fitted with a Leitz Wetzlar 20× L20 lens (0.32 numerical aperture), a Leitz Wetzlar 10× Planfluotar lens (0.30 numerical aperture), a Leitz Wetzlar 4× EF lens (0.12 numerical aperture), a Leitz Wetzlar 2.5× P1 lens (0.08 numerical aperture, and an Olympus 20× Wplan water immersion lens (0.4 numerical aperture). The intra-vital microscope system used for these studies was fitted with two trans-illumination light sources and one epi-illumination light source. The two trans-illumination sources were used in the following manner. One trans-illumination light source was used for imaging the tissue within the window chamber, and the other was used as the irradiation source for activating the photosensitizer in the tissue. The imaging source was a […] mercury arc lamp (Type 307-143.004 from Ernst Leitz Wetzlar GmBH, Germany) which was powered by an HBO 100 power supply (LEP Ltd., Scarsdale, N.Y.). The output from this source was filtered using a #H43157 interference filter (Edmund Scientific, 101 East Gloucester Pike, Barrington, N.J., 08007-1380), to produce a beam of 410 nm light. The irradiation source was a Model DD4 Diode Laser (Miravant Medical Technologies 336 Bollay Drive., Santa Barbara, Calif., 93117), which produced 664 nm light.

- Edema in field (mouse, in vivo, iv, 0.05 mg/kg): Mild edema in field.
- Focal edema and cellular infiltrate (mouse, in vivo, iv, 0.05 mg/kg): minor areas of focal
Compound: C=Cc1c(C)c2[n]3c1=CC1=NC(=Cc4c(C)c5c([n]4[In]3[Cl])C(=C3N=C(C=2)[C@@H](C)[C@@H]3CCC(=O)OC)CC5=O)C(CC)=C1C [MV6401, indium methyl pyropheophorbide]
- Extravasation of FITC-Dextran from larger vessels in field (mouse #2, MV6401 0.05 mg/kg i.v., 664 nm, 15 J/cm^2, 50 mW/cm^2, FITC-Dextran 1 day post PhotoPoint therapy): Pronounced extravasation
- Extravasation of FITC-Dextran from many vessels in the treatment field (mouse #3, MV6401 0.05 mg/kg i.v., 664 nm, 20 J/cm^2, 50 mW/cm^2, FITC-Dextran 2 days post PhotoPoint therapy): flowing. Pronounced
- Focal vascular damage in the treatment field, immediately post FITC-Dextran administration (mouse, in vivo, iv, 0.05 mg/kg): Some evidence of focal
- Tissue damage, subsequent observation (mouse, in vivo, iv, 0.05 mg/kg): damage. Some evidence
- Vascular damage, subsequent observation (mouse, in vivo, iv, 0.05 mg/kg): Pronounced focal vascular
